{"source": "patent US20260248087A1", "about": "“GENERATING DOUBLED HAPLOID PLANTS” (Syngenta Crop Protection AG, priority 2023, published 2026)", "key": {"embryos from maize ears [1]": {"test_system": "embryos from maize ears", "test": "Potting and transplant rate, co-treatment with metcamifen and thiamethoxam during colchicine doubling", "assay_type": "in vivo", "source_text": "(§1) As used herein, the term “potted rate” or “potting rate” refers to the percent of germinated embryos successfully transferred to soil from total treated haploid embryos. The “potted rate” is used as an indication of plant health in monitoring the success of recovery and growth after treatment of haploids. As used herein, the term “transplant rate” refers to the survival of healthy plants after embryos were germinated and transferred to soil.\n(§2) To assess the impact of the safener and vigor enhancing compounds on the full DH production pipeline, experiments were designed and conducted spanning haploid embryo isolation, doubling treatment, germination, potting, growth to maturity, selfing, and seed set evaluation. Embryos from maize ears of two genotypes were isolated and co-treated with both metcamifen and thiamethoxam during the colchicine doubling treatment, in triplicate. Metcamifen was added in the Murashige and Skoog Medium (MS medium) at concentrations ranging from 400 to 800 mg/L in combination with TMX at concentrations ranging from 4000 to 6000 mg/L. Control co-treatments with metcamifen alone, TMX alone, or colchine-only were run in parallel. Concentrations for co-treatments were selected based on best outcomes from experiments in Examples 1-8. The co-treatments incubated for 24 and 48 hours at 28° C. with 150 PAR light. Resulting embryos were germinated and the percentage of embryos successfully transferred to soil was measured as the potting rate. The survival of healthy plants was measured as the transplant rate."}, "GST27": {"test_system": "GST27", "test": "GST27 induction, metcamifen and thiamethoxam co-treatment in liquid medium", "assay_type": "cell-based, maize", "method": "For the examples below, GST27 was used as a quick indicator for treatment effectiveness.\n(§3) Isolated embryos were placed in a Petri dish on filter paper wetted with liquid Murashige and Skoog Medium (MS medium) containing colchicine and a formulation of metcamifen at 800 mg/L, TMX at 4000 mg/L, or a combination of 800 mg/L metcamifen and 4000 mg/L TMX. The colchicine treatment control used the same conditions except with a medium containing 3.5 g/L Gelzan as compared to the liquid medium without Gelzan. The co-treatments incubated for 24 or 48 hours at 28° C. with 150 PAR light and were conducted on 2 genotypes with 2 replicates. The effects on GST expression, potting rate, and transplant rate are reported (see Table 16). The rate of diploid escapes observed increased to 6.4-8.5% in the 24-hour co-treatments with 4000 mg/L TMX and 4000 mg/L TMX combined with 800 mg/L metcamifen. In all other co-treatments, the escape rate was 0%. […] The best transplant rates observed were in the 24-hour duration 4000 mg/L TMX co-treatment (90%) compared to the control (72%).\n(§4) In a separate experiment, additional concentrations of metcamifen and TMX co-treatment were tested in liquid co-treatments. The experimental setup was the same as described above for the data in Table 16, but the co-treatment concentrations were varied. […] The decreased concentrations were associated with lower rates of escapes in the 24-hour co-treatments, only the metcamifen with TMX combination co-treatment produced escapes (1.8%). Potting and transplant rates remained high, with the best performance in the 24-hour metcamifen with TMX combination co-treatment (96% potting, and 87% transplant) compared to the colchicine-only control (60% potting, and 47% transplant) (see Table 17). In all liquid media co-treatments, higher rates of bacterial and/or fungal contamination were observed. In total, 35% of the attempted experiments were discarded due to contamination issues and excluded from the data analysis."}, "embryos from maize ears [2]": {"test_system": "embryos from maize ears", "test": "Ear kernel setting rates and DH yield after co-treatment with metcamifen and thiamethoxam", "assay_type": "in vivo", "settings": "for Ears >4 Rate Mean / Ears >49 Rate Mean: co-treatment with colchicine", "method": "as §2, with “transplant rate. […]” for “transplant rate.”\nOne way of measuring the success of DH production is a ratio of output:input, defined as “DH yield”, where a larger ratio is typically desirable for a more efficient production system. In this study, we measured this in two ways: DH ears/total haploid embryos and DH ears/transplants (see Table 15)."}, "isolated embryos": {"test_system": "isolated embryos", "test": "Potting and transplant rate, metcamifen and thiamethoxam co-treatment in liquid medium", "assay_type": "in vivo, maize", "source_text": "as §1, §3, §4"}, "[3]": {"settings": "Table 16, liquid medium: metcamifen 800 mg/L, 24 Hour"}, "[4]": {"settings": "Table 16, liquid medium: metcamifen 800 mg/L, 48 Hour"}, "[5]": {"settings": "Table 17, liquid medium: metcamifen 800 mg/L, 24 Hour"}, "[6]": {"settings": "Table 17, liquid medium: metcamifen 800 mg/L, 48 Hour"}, "[7]": {"settings": "Table 16, liquid medium: TMX 4000 mg/L, 24 Hour"}, "[8]": {"settings": "Table 16, liquid medium: TMX 4000 mg/L, 48 Hour"}, "[9]": {"settings": "Table 17, liquid medium: TMX 4000 mg/L, 24 Hour"}, "[10]": {"settings": "Table 17, liquid medium: TMX 6000 mg/L, 48 Hour"}}, "note": "Values joined by “and” are separate entries in the source; they are usually repeats but may differ in a detail not shown here. Equal entries are not always repeated."}
{"smiles": "CNC(=O)Nc1ccc(S(=O)(=O)NC(=O)c2ccccc2OC)cc1", "note": "[Metcamifen, metcamifen]", "values": [{"measurement": "Potted Rate Mean", "setting": "embryos from maize ears [1]; metcamifen 800 mg/L, 24 hours", "value": 76, "unit": "%"}, {"measurement": "Transplant Rate Mean", "setting": "embryos from maize ears [1]; metcamifen 800 mg/L, 24 hours", "value": 68, "unit": "%"}, {"measurement": "Potted Rate Mean", "setting": "embryos from maize ears [1]; metcamifen 800 mg/L, 48 hours", "value": 15, "unit": "%"}, {"measurement": "Transplant Rate Mean", "setting": "embryos from maize ears [1]; metcamifen 800 mg/L, 48 hours", "value": 15, "unit": "%"}, {"measurement": "GST27 Induction After", "setting": "GST27; [3]", "value": 270, "unit": "ng/mg TSP"}, {"measurement": "GST27 Induction Before", "setting": "GST27; [3]", "value": 0, "unit": "ng/mg TSP"}, {"measurement": "GST27 Induction After", "setting": "GST27; [4]", "value": 396, "unit": "ng/mg TSP"}, {"measurement": "GST27 Induction Before", "setting": "GST27; [4]", "value": 0, "unit": "ng/mg TSP"}, {"measurement": "GST27 Induction After", "setting": "GST27; [5]", "value": 263, "unit": "ng/mg TSP"}, {"measurement": "GST27 Induction Before", "setting": "GST27; [5]", "value": 0, "unit": "ng/mg TSP"}, {"measurement": "GST27 Induction After", "setting": "GST27; [6]", "value": 340, "unit": "ng/mg TSP"}, {"measurement": "GST27 Induction Before", "setting": "GST27; [6]", "value": 4, "unit": "ng/mg TSP"}, {"measurement": "Ears >4 Rate Mean", "setting": "embryos from maize ears [2]; metcamifen 800 mg/L, 24 hours", "value": 38, "unit": "%"}, {"measurement": "Ears >49 Rate Mean", "setting": "embryos from maize ears [2]; metcamifen 800 mg/L, 24 hours", "value": 24, "unit": "%"}, {"measurement": "Ears >4 Rate Mean", "setting": "embryos from maize ears [2]; metcamifen 800 mg/L, 48 hours", "value": 9, "unit": "%"}, {"measurement": "Ears >49 Rate Mean", "setting": "embryos from maize ears [2]; metcamifen 800 mg/L, 48 hours", "value": 4, "unit": "%"}, {"measurement": "Ears >4 DH Yield, DH Ears/Total Haploids, Mean", "setting": "embryos from maize ears [2]; metcamifen 800 mg/L, 24 hours", "value": 0.33}, {"measurement": "Ears >4 DH Yield, DH Ears/Transplants, Mean", "setting": "embryos from maize ears [2]; metcamifen 800 mg/L, 24 hours", "value": 0.47}, {"measurement": "Ears >49 DH Yield, DH Ears/Total Haploids, Mean", "setting": "embryos from maize ears [2]; metcamifen 800 mg/L, 24 hours", "value": 0.21}, {"measurement": "Ears >49 DH Yield, DH Ears/Transplants, Mean", "setting": "embryos from maize ears [2]; metcamifen 800 mg/L, 24 hours", "value": 0.30}, {"measurement": "Ears >4 DH Yield, DH Ears/Total Haploids, Mean", "setting": "embryos from maize ears [2]; metcamifen 800 mg/L, 24 hours, listed as metcamifen", "value": "increased significantly"}, {"measurement": "Ears >4 DH Yield, DH Ears/Total Haploids, Mean", "setting": "embryos from maize ears [2]; metcamifen 800 mg/L, 48 hours", "value": 0.07}, {"measurement": "Ears >4 DH Yield, DH Ears/Transplants, Mean", "setting": "embryos from maize ears [2]; metcamifen 800 mg/L, 48 hours", "value": 0.61}, {"measurement": "Ears >49 DH Yield, DH Ears/Total Haploids, Mean", "setting": "embryos from maize ears [2]; metcamifen 800 mg/L, 48 hours", "value": 0.03}, {"measurement": "Ears >49 DH Yield, DH Ears/Transplants, Mean", "setting": "embryos from maize ears [2]; metcamifen 800 mg/L, 48 hours", "value": 0.25}, {"measurement": "Potting Rate Mean", "setting": "isolated embryos; [3]", "value": 92.5, "unit": "%"}, {"measurement": "Transplant Rate Mean", "setting": "isolated embryos; [3]", "value": 88.2, "unit": "%"}, {"measurement": "Potting Rate Mean", "setting": "isolated embryos; [4]", "value": 21.5, "unit": "%"}, {"measurement": "Transplant Rate Mean", "setting": "isolated embryos; [4]", "value": 20.4, "unit": "%"}, {"measurement": "Potting Rate Mean", "setting": "isolated embryos; [5]", "value": 86.2, "unit": "%"}, {"measurement": "Transplant Rate Mean", "setting": "isolated embryos; [5]", "value": 74.1, "unit": "%"}, {"measurement": "Potting Rate Mean", "setting": "isolated embryos; [6]", "value": 9.2, "unit": "%"}, {"measurement": "Transplant Rate Mean", "setting": "isolated embryos; [6]", "value": 9.2, "unit": "%"}]}
{"smiles": "CN1COCN(Cc2cnc(Cl)s2)/C1=N\\[N+](=O)[O-]", "note": "[TMX, thiamethoxam]", "values": [{"measurement": "Potted Rate Mean", "setting": "embryos from maize ears [1]; TMX 4000 mg/L, 48 hours", "value": 79, "unit": "%"}, {"measurement": "Transplant Rate Mean", "setting": "embryos from maize ears [1]; TMX 4000 mg/L, 48 hours", "value": 77, "unit": "%"}, {"measurement": "Potted Rate Mean", "setting": "embryos from maize ears [1]; TMX 6000 mg/L, 24 hours", "value": 95, "unit": "%"}, {"measurement": "Transplant Rate Mean", "setting": "embryos from maize ears [1]; TMX 6000 mg/L, 24 hours", "value": 93, "unit": "%"}, {"measurement": "GST27 Induction After", "setting": "GST27; [7]", "value": 255, "unit": "ng/mg TSP"}, {"measurement": "GST27 Induction Before", "setting": "GST27; [7]", "value": 0, "unit": "ng/mg TSP"}, {"measurement": "GST27 Induction After", "setting": "GST27; [8]", "value": 194, "unit": "ng/mg TSP"}, {"measurement": "GST27 Induction Before", "setting": "GST27; [8]", "value": 1, "unit": "ng/mg TSP"}, {"measurement": "GST27 Induction After", "setting": "GST27; [9]", "value": 193, "unit": "ng/mg TSP"}, {"measurement": "GST27 Induction Before", "setting": "GST27; [9]", "value": 5, "unit": "ng/mg TSP"}, {"measurement": "GST27 Induction After", "setting": "GST27; [10]", "value": 208, "unit": "ng/mg TSP"}, {"measurement": "GST27 Induction Before", "setting": "GST27; [10]", "value": 13, "unit": "ng/mg TSP"}, {"measurement": "Ears >4 DH Yield, DH Ears/Total Haploids, Mean", "setting": "embryos from maize ears [2]; TMX 4000 mg/L, 48 hours", "value": 0.29}, {"measurement": "Ears >4 DH Yield, DH Ears/Transplants, Mean", "setting": "embryos from maize ears [2]; TMX 4000 mg/L, 48 hours", "value": 0.37}, {"measurement": "Ears >49 DH Yield, DH Ears/Total Haploids, Mean", "setting": "embryos from maize ears [2]; TMX 4000 mg/L, 48 hours", "value": 0.12}, {"measurement": "Ears >49 DH Yield, DH Ears/Transplants, Mean", "setting": "embryos from maize ears [2]; TMX 4000 mg/L, 48 hours", "value": 0.16}, {"measurement": "Ears >4 DH Yield, DH Ears/Transplants, Mean", "setting": "embryos from maize ears [2]; TMX 6000 mg/L, 24 hours", "value": 0.44}, {"measurement": "Ears >49 DH Yield, DH Ears/Total Haploids, Mean", "setting": "embryos from maize ears [2]; TMX 6000 mg/L, 24 hours", "value": 0.20}, {"measurement": "Ears >49 DH Yield, DH Ears/Transplants, Mean", "setting": "embryos from maize ears [2]; TMX 6000 mg/L, 24 hours", "value": 0.21}, {"measurement": "Ears >4 Rate Mean", "setting": "embryos from maize ears [2]; TMX 4000 mg/L, 48 hours", "value": 30, "unit": "%"}, {"measurement": "Ears >49 Rate Mean", "setting": "embryos from maize ears [2]; TMX 4000 mg/L, 48 hours", "value": 13, "unit": "%"}, {"measurement": "Ears >4 Rate Mean", "setting": "embryos from maize ears [2]; TMX 6000 mg/L, 24 hours", "value": 45, "unit": "%"}, {"measurement": "Ears >49 Rate Mean", "setting": "embryos from maize ears [2]; TMX 6000 mg/L, 24 hours", "value": 24, "unit": "%"}, {"measurement": "Potting Rate Mean", "setting": "isolated embryos; [7]", "value": 92.3, "unit": "%"}, {"measurement": "Transplant Rate Mean", "setting": "isolated embryos; [7]", "value": "90% and 89.7%"}, {"measurement": "Potting Rate Mean", "setting": "isolated embryos; [8]", "value": 79.4, "unit": "%"}, {"measurement": "Transplant Rate Mean", "setting": "isolated embryos; [8]", "value": 72.2, "unit": "%"}, {"measurement": "Potting Rate Mean", "setting": "isolated embryos; [9]", "value": 77.3, "unit": "%"}, {"measurement": "Transplant Rate Mean", "setting": "isolated embryos; [9]", "value": 81.3, "unit": "%"}, {"measurement": "Potting Rate Mean", "setting": "isolated embryos; [10]", "value": 58.0, "unit": "%"}, {"measurement": "Transplant Rate Mean", "setting": "isolated embryos; [10]", "value": 54.0, "unit": "%"}]}
